Measured values published in patent publication US10800789B2, “Antiviral compounds” (Gilead Pharmasset LLC, priority 2012, dated 2020).
Where two headings read alike, the source gives them in different places.

Tests used:
[1] = test system: NS5A chimeric genotype 1b Con1 replicon with genotype 3a S52 strain NS5A gene; assay: Replicon assay, genotype 3a NS5A chimera; format: cell-based, HCV; details: Hepatitis C virus
[2] = test system: stable HCV 2a JFH-1 Rluc replicon cells (L31 present in NS5A); assay: Renilla luciferase HCV replicon reporter assay, genotype 2a JFH-1; format: cell-based; details: Hepatitis C virus
Outline: (§1)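 First, 3-fold serial dilutions of compound went onto replicon cells, DMSO serving as no-inhibition control and ITMN-191 at >100×EC50 as positive control. Next came 72 h incubation, lysis and Renilla luciferase measurement. Finally, EC50 was calculated by non-linear regression; replicons covered genotypes 1a H77, 1b Con1, 2a JFH-1 (L31) and J6-NS5A chimera (M31).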

[3] = test system: NS5A chimeric genotype 2a JFH-1 replicon with genotype 2a J6 strain NS5A gene (M31 present); assay: Replicon assay, genotype 2a J6 NS5A chimera; format: cell-based, HCV; details: Hepatitis C virus
Outline: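 Antiviral EC50 was determined in HCV replicon cells (stable RLuc lines for 1a H77, 1b Con1, 2a JFH-1 with NS5A L31; J6 NS5A chimera with M31) treated 72 h with compound. Renilla luciferase was then quantified.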

[4] = test system: stable HCV 1a RLuc replicon cells (dicistronic genotype 1a H77 replicon); assay: Renilla luciferase HCV replicon reporter assay, genotype 1a; format: cell-based; details: Hepatitis C virus, 72 h, stable 1a H77 RLuc replicon cells
Outline: as §1

[5] = test system: NS5A chimeric genotype 1b Con1 replicon with genotype 4a ED43 strain NS5A gene; assay: Replicon assay, genotype 4a NS5A chimera; format: cell-based, HCV; details: Hepatitis C virus
[6] = test system: NS5A chimeric genotype 2a JFH-1 replicon with genotype 2b MD2b-1 strain NS5A gene (M31 present); assay: Replicon assay, genotype 2b NS5A chimera; format: cell-based, HCV; details: Hepatitis C virus
Outline: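 EC50 was fitted by non-linear regression to Renilla luciferase signal after 72 h of exposure to 3-fold serially diluted compound (10 mM DMSO stocks). Controls were DMSO (none) and ITMN-191 above 100×EC50 (full). Chimeric 2a replicons were used either stable or transiently transfected into Huh-Lunet cells.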

[7] = test system: stable HCV 1b RLuc replicon cells (dicistronic genotype 1b Con1 replicon); assay: Renilla luciferase HCV replicon reporter assay, genotype 1b; format: cell-based; details: Hepatitis C virus, 72 h, stable 1b Con1 RLuc replicon cells, 72 hours; read-out: 1b
Outline: as §1

[8] = read-out: 3a (s) (nM), genotype 3a NS5A chimeric replicon, stable replicon cells (s)
[9] = read-out: 3a (s), (s), activity range
[10] = read-out: 2a JFH (nM), genotype 2a JFH-1 replicon (L31 in NS5A), stable cells
[11] = read-out: 2a JFH, stable 2a JFH-1 Rluc replicon cells, L31 in NS5A, activity range
[12] = read-out: 2a J6 (t) (nM), genotype 2a J6 NS5A chimeric replicon (M31), transiently transfected (t) into Huh-Lunet cells
[13] = read-out: 2a J6 (t), transiently transfected (t) into Huh-Lunet cells, activity range
[14] = read-out: 4a (s) (nM), genotype 4a NS5A chimeric replicon, stable replicon cells (s)
[15] = read-out: 4a (s), (s), activity range
[16] = 2BS, read-out: 2b (s), stably replicating replicon cells (s), activity range
[17] = read-out: 2b (s) (nM), genotype 2b MD2b-1 NS5A chimeric replicon (M31), stably replicating replicon cells (s)

SMILES	EC50 [1, 8] [nM]	EC50 [1, 9] [nM]	EC50 [2, 10] [nM]	EC50 [2, 11] [nM]	EC50 [3, 12] [nM]	EC50 [3, 13] [nM]	EC50 [4] [nM]	EC50 ([4]; activity range) [nM]	EC50 [5, 14] [nM]	EC50 [5, 15] [nM]	EC50 [6, 16] [nM]	EC50 [6, 17] [nM]	EC50 [7] [nM]
COC(=O)N[C@H](C(=O)N1CCC[C@H]1c1ncc(-c2ccc3c(c2)COc2cc4c(ccc5nc([C@@H]6CCCN6C(=O)[C@@H](NC(=O)OC)C6CCOCC6)[nH]c54)cc2-3)[nH]1)C1CCOCC1 [HI]	0.447	0.1 to 0.999	0.041	< 0.1	0.2	0.1 to 0.999	0.203	0.1 to 0.999	0.111	0.1 to 0.999	0.1 to 0.999	0.203	0.416
CC[C@H]1C[C@@H](c2nc3ccc4cc5c(cc4c3[nH]2)OCc2cc(-c3cnc([C@@H]4CC[C@H](C)N4C(=O)[C@@H](NC(=O)OC)C(C)C)[nH]3)ccc2-5)N(C(=O)[C@H](C)NC(=O)OC)C1 [HK]	0.705	0.1 to 0.999	0.034	< 0.1	0.878	0.1 to 0.999	0.017	< 0.1	0.02	< 0.1	1 to 44	11.5	0.026
COC(=O)N[C@@H](C)C(=O)N1[C@@H](C)CC[C@H]1c1ncc(-c2ccc3c(c2)COc2cc4c(ccc5nc([C@@H]6CC[C@H](C)N6C(=O)[C@@H](NC(=O)OC)C(C)C)[nH]c54)cc2-3)[nH]1 [HL]	0.127	0.1 to 0.999	0.019	< 0.1	1.43	1 to 44	0.017	< 0.1	0.02	< 0.1	1 to 44	3.72	0.021
COC(=O)N[C@H](C(=O)N1C(c2ncc(-c3ccc4c(c3)COc3cc5c(ccc6nc(C7C[C@H](C)CN7C(=O)[C@@H](NC(=O)OC)C(C)(C)C)[nH]c65)cc3-4)[nH]2)CC[C@@H]1C)C(C)C (stereo partly shown) [HN]	0.282	0.1 to 0.999	0.018	< 0.1	1.1	1 to 44	0.01	< 0.1	0.018	< 0.1	1 to 44	2.86	0.012
COC(=O)N[C@H](C(=O)N1[C@@H](C)CC[C@H]1c1nc2ccc3cc4c(cc3c2[nH]1)OCc1cc(-c2cnc([C@@H]3[C@@H]5C[C@@H]5CN3C(=O)[C@@H](NC(=O)OC)C3CCOCC3)[nH]2)ccc1-4)C(C)C [HO]	0.136	0.1 to 0.999	0.022	< 0.1	0.207	0.1 to 0.999	0.059	< 0.1	0.04	< 0.1	0.1 to 0.999	0.639	0.074
COC(=O)N[C@H](C(=O)N1[C@@H](C)CC[C@H]1c1nc2ccc3cc4c(cc3c2[nH]1)OCc1cc(-c2cnc([C@@H]3[C@@H]5C[C@@H]5CN3C(=O)[C@@H](NC(=O)OC)[C@@H](C)OC)[nH]2)ccc1-4)C(C)C [HP]	0.079	< 0.1	0.014	< 0.1	0.22	0.1 to 0.999	0.019	< 0.1	0.023	< 0.1	1 to 44	1.02	0.026
COC(=O)N[C@H](C(=O)N1C[C@H]2C[C@H]2[C@H]1c1ncc(-c2ccc3c(c2)COc2cc4c(ccc5nc([C@@H]6CC[C@H](C)N6C(=O)[C@@H](NC(=O)OC)C(C)C)[nH]c54)cc2-3)[nH]1)C(C)C [HR]	0.047	< 0.1	0.022	< 0.1	1.12	1 to 44	0.015	< 0.1	0.015	< 0.1	1 to 44	2.18	0.024
COC(=O)N[C@H](C(=O)N1C[C@@H](F)C[C@H]1c1ncc(-c2ccc3c(c2)COc2cc4c(ccc5nc([C@@H]6CC[C@H](C)N6C(=O)[C@@H](NC(=O)OC)C(C)C)[nH]c54)cc2-3)[nH]1)C(C)C [HS]	0.082	< 0.1	0.022	< 0.1	4.14	1 to 44	0.011	< 0.1	0.008	< 0.1	1 to 44	3.37	0.023
COC(=O)N[C@H](C(=O)N1[C@@H](C)CC[C@H]1c1nc2ccc3cc4c(cc3c2[nH]1)OCc1cc(-c2cnc([C@@H]3C[C@H](F)CN3C(=O)[C@@H](NC(=O)OC)C3CCOCC3)[nH]2)ccc1-4)C(C)C [HT]	0.075	< 0.1	0.051	< 0.1	0.778	0.1 to 0.999	0.07	< 0.1	0.03	< 0.1	1 to 44	1.35	0.11
COC(=O)N[C@H](C(=O)N1[C@@H](C)CC[C@H]1c1nc2ccc3cc4c(cc3c2[nH]1)OCc1cc(-c2cnc([C@@H]3C[C@H](F)CN3C(=O)[C@@H](NC(=O)OC)[C@@H](C)OC)[nH]2)ccc1-4)C(C)C [HU]	0.083	< 0.1	0.026	< 0.1	3.17	1 to 44	0.016	< 0.1	0.012	< 0.1	1 to 44	3.56	0.055
COC(=O)N[C@H](C(=O)N1[C@@H](C)CC[C@H]1c1ncc(-c2ccc3c(c2)COc2cc4c(ccc5nc([C@@H]6CC[C@H](C)N6C(=O)[C@@H](NC(=O)OC(C)(C)C)C(C)(C)O)[nH]c54)cc2-3)[nH]1)C(C)C [HV]	12.6	1 to 44	1.87	1 to 44	≥ 44.4	> 44	3.65	1 to 44	1.27	1 to 44	> 44	≥ 44.4	0.091
COC(=O)N[C@H](C(=O)N1[C@@H](C)CC[C@H]1c1ncc(-c2ccc3c(c2)COc2cc4c(ccc5nc([C@@H]6CC[C@H](C)N6C(=O)[C@@H](NC(=O)OC)[C@H](C)O)[nH]c54)cc2-3)[nH]1)C(C)C [HW]	0.085	< 0.1	0.047	< 0.1	1.1	1 to 44	0.056	< 0.1	0.021	< 0.1	1 to 44	1.79	0.066
COC(=O)N[C@H](C(=O)N1C[C@@H](C)C[C@H]1c1nc2ccc3cc4c(cc3c2[nH]1)OCc1cc(-c2cnc([C@@H]3CC[C@H](C)N3C(=O)[C@@H](NC(=O)OC)C(C)(C)C)[nH]2)ccc1-4)C(C)C [HX]	0.266	0.1 to 0.999	0.027	< 0.1	3.28	1 to 44	0.011	< 0.1	0.014	< 0.1	1 to 44	2.92	0.02
